Laboratory results taken from a melting point compilation (Tetko et al.; mined from patent text by program, amines drawn as free bases though some values may be those of a salt).

First: COc1ccc(N2CCCn3c2nc2c(Cl)ccc(C(OCC(F)F)C4CC4)c23)c(C)n1 (centres undefined)
Second: COc1ccc(-c2cnc3[nH]c(=O)n(CC4CCCCC4)c3n2)cn1
The melting point of the first is lower: 124 to 126 °C for the first, 235 to 237 °C for the second.

Compared with `COc1c(OC)c(-c2ccccc2)n(-c2ccc(C)cc2)c1-c1ccccc1`, `ClCc1c(-c2ccccc2)c(-c2ccccc2)nn1-c1ccccc1` is lower in melting point: 192 to 193 °C for the first, 122 °C for the second.

Compared with `CN1N=C(c2ccccc2Cl)N(C)N=C1c1ccccc1Cl`, `COC(=O)NCc1cccc(-c2ccccc2)c1C` is lower in melting point: 148 to 149 °C for the first, 91 to 94 °C for the second.

First: CCCC(C#N)(Cn1cncn1)c1ccc(F)cc1 (centres undefined)
Second: CS(=O)(=O)N(Cc1ccc(C(F)(F)F)cc1)CC(O)(Cn1cncn1)c1ccc(Cl)cc1Cl (centres undefined)
The melting point of the first is lower: 75 to 76 °C for the first, 139 to 141 °C for the second.

First: C=CCNC(=O)n1nc(O)cc1C
Second: Cc1snc(O)c1C(N)=O
The melting point of the first is lower: 80 to 83 °C for the first, 248 to 250 °C for the second.

First: COc1ccc2cc3c(Br)nn(C(C)C)c3nc2c1
Second: CC(C)C#Cc1ncn2c1CN(C)C(=O)c1c(Cl)cccc1-2
The melting point of the first is higher: 130 to 131 °C for the first, 128 to 130 °C for the second.

First: CCOC(=O)NNC=Nc1nc(-c2ccc(C3CCCCC3)cc2)cs1
Second: COC(=O)C(=CN(C)C)N(C)c1nc(-c2ccc(Cl)cc2)cs1
The melting point of the first is higher: 188 to 189 °C for the first, 177 to 178 °C for the second.

Compared with `O=S(=O)(Cl)c1ccc(-c2cccs2)s1`, `O=c1c2ccccc2oc2c(CBr)cccc12` is higher in melting point: 63 to 64 °C for the first, 191 to 192 °C for the second.

First: Cc1ccc(Sc2c(O)c3ccc(Cl)cc3[nH]c2=O)cc1C
Second: NC(=O)c1cc(=O)c2c(o1)c1ccccc1n2-c1ccccc1
The melting point of the first is higher: 267 to 268 °C for the first, 263 to 265 °C for the second.

First: CC(C)(C)NC(=O)c1ccccc1C(C(=O)C(C)(C)C)c1ccccc1 (centres undefined)
Second: CC(C)(C)C(=O)CN1C(=O)C(NC(=O)Nc2cccc(C(=O)NS(C)(=O)=O)c2)CN(c2ccccc2)c2ccccc21 (centres undefined)
The melting point of the first is lower: 157 to 161 °C for the first, 229 to 233 °C for the second.

First: COC(=O)c1c[nH]c(C=O)c1
Second: COC(=O)c1cc2n(c1)CCCC2
The melting point of the first is higher: 97 to 99 °C for the first, 72 to 74 °C for the second.

Compared with `O=C1Nc2ccc(Cl)cc2C(OCC2CC2)(C(F)(F)F)CN1C1CCC1` (centres undefined), `C[C@]1(COc2ccc(N3CCC(COCc4ccc(C(F)(F)F)cc4)CC3)cc2)Cn2cc([N+](=O)[O-])nc2O1` is higher in melting point: 156 °C for the first, 172 to 173 °C for the second.

Compared with `CC(CCCN(C)C)C1CC(=O)C2=C3CCC4CC(O)CCC4(C)C3CCC21C` (centres undefined), `NC1([C@@H]2CCN(c3ccc4c(=O)c(C(=O)O)cn([C@@H]5C[C@@H]5F)c4c3)C2)CC1` is higher in melting point: 160 to 162 °C for the first, 251 to 253 °C for the second.

First: O=C(Nc1nc(-c2ccco2)c(-c2ccncc2)s1)c1ccnc(CN2CCC(O)CC2)c1
Second: Cc1ccc(NC(=O)c2ccc(CN3CCN(C)CC3)c(C(F)(F)F)c2)cc1-c1ccc2ccncc2c1
The melting point of the first is higher: 203 to 208 °C for the first, 153 to 154 °C for the second.

First: CC(C)(O)C(=O)c1ccc(OCC2CO2)cc1 (centres undefined)
Second: CC1(C)CC(=C(c2ccc(O)cc2)c2ccc(OCCO)cc2)CC(C)(C)C1
The melting point of the first is lower: 54 °C for the first, 154 to 155 °C for the second.

First: CCOC(=O)C(C(=O)OC(C)C)=C1SC=CS1
Second: CCOC(=O)c1cccc2c3c([nH]c12)CN(CC(=O)NC(C(=O)C(F)(F)F)C(C)C)C=C3 (centres undefined)
The melting point of the first is lower: 54 °C for the first, 218 to 219 °C for the second.

Compared with `CCCCCCCCCCCCCCCCCCOCC(O)Cn1cnc2c(N)ncnc21` (centres undefined), `c1ccc(COc2ccc(COc3ccc(CCCn4ccnc4)cc3)cn2)cc1` is lower in melting point: 151 to 152 °C for the first, 84 to 85 °C for the second.

Compared with `COc1nc(C)nc(NC(=O)NS(=O)(=O)c2cc([N+](=O)[O-])cs2)n1`, `COc1ccc(S(=O)(=O)Nc2ccccc2NC(=O)c2ccccn2)cc1` is lower in melting point: 188 °C for the first, 174 to 175 °C for the second.

Compared with `NC(=O)c1nccn1C1Cc2cc(F)ccc2C1=O` (centres undefined), `CC1Cc2ccc(Br)cc2C(c2ccc([N+](=O)[O-])cc2)=NN1C(=O)C(F)(F)F` (centres undefined) is lower in melting point: 221 °C for the first, 193 to 196 °C for the second.

First: C[C@@H]1CC[C@H](C(=O)O)Cc2onc(-c3ccc(Cl)cc3)c21 (relative stereo)
Second: CC(Oc1ccccc1-c1ccc(Cl)c(C(=O)NCC23CC4CC(CC(C4)C2)C3)c1)C(=O)O (centres undefined)
The melting point of the first is higher: 154 to 155 °C for the first, 107 to 110 °C for the second.

Compared with `CN(CCCNC(=O)c1ccc(OC(F)(F)F)cc1)CCCNC(=O)c1ccc(OC(F)(F)F)cc1`, `COC(=O)CCCC(=O)Nc1ccc(C(=O)NN=C2C(=O)Nc3ccc(I)cc32)cc1` is higher in melting point: 110 to 111 °C for the first, 282 °C for the second.

Compared with `CC(=O)OCc1cccc2c1nc(-c1c(F)cccc1F)n2Cc1c(F)cccc1F`, `CCn1c(=O)c2c(nc(/C=C/c3cccc(OC(=O)c4ccccc4)c3)n2C)n(CC)c1=O` is higher in melting point: 126 to 127 °C for the first, 223 to 224 °C for the second.

Compared with `CC(C)(CO)Oc1ccc(-c2ccc(N3CCCCC3)cc2)cc1`, `COc1cc(C(=O)NS(=O)(=O)c2ccccc2C)ccc1Cn1cc(/C=C/C(=O)N2CCCC2)c2ccc(/C=C/C(=O)N3CCCC3)cc21` is higher in melting point: 158 to 160 °C for the first, 297 to 299 °C for the second.

First: CC1(C)CC(C(O)CNc2nc(Cl)nc(NCC(O)C3CC(C)(C)NC(C)(C)C3)n2)CC(C)(C)N1 (centres undefined)
Second: COC(=O)c1nc2cccc(Br)c2c(O)c1C(=O)OC
The melting point of the first is higher: 206 to 207 °C for the first, 124 to 126 °C for the second.

With `O=C(CCC(=O)N(CCO)CCO)c1ccccc1` the melting point was 98 °C.
